Biological target: T1, hSCN3A sodium channels (Homo sapiens, UniProt Q9NY46)
T1 construct: expressed in transfected cells
Test: hSCN3A electrophysiology, Ionworks Quattro automated platform (Table C)
Format: cell-based
Conditions: for inhibition at 3 µM: 3 μM compound, read-out: SCN3A % INHIB HTS IWQ 3 μM; for inhibition at 10 µM: 10 μM compound, read-out: SCN3A % INHIB HTS IWQ 10 μM
Procedure: Human Embryonic Kidney (HEK) cells were transfected with an hSCN3A construct using lipofectamine reagent (Invitrogen), using standard techniques. […] Clones were screened for expression using the whole-cell voltage-clamp technique.
HEK cells stably transfected with hSCN3A were maintained in DMEM medium supplemented with 10% heat-inactivated fetal bovine serum and 400 μg/ml G418 sulfate in an incubator at 37° C. with a humidified atmosphere of 10% CO2. […] For electrophysiological studies, cells were removed from the culture flask by brief trypsinization and replated at low density onto glass cover slips. Cells were typically used for electrophysiological experiments within 24 to 72 h after plating.
Electrophysiological assays were also conducted using the Ionworks Quattro automated electrophysiological platform (Molecular Devices Corp) (Table C). Intracellular and extracellular solutions were as described above with the following changes, 100 μg/ml amphotericin was added to the intracellular solution to perforate the membrane and allow electrical access to the cells. hSCN3A cells were grown and harvested as for PatchXpress and cells were resuspended in extracellular solution at a concentration of 3-4×10^6 cells/ml. The onboard liquid handling facility of the Ionworks Quattro was used for dispensing cells and application of test compounds. A voltage protocol was then applied that comprised of a voltage step to fully inactivate the sodium channels, followed by a brief hyperpolarized recovery period to allow partial recovery from inactivation for unblocked sodium channels, followed by a test depolarized voltage step to assess magnitude of inhibition by test compound. Compound effect was determined based on current amplitude difference between the pre-compound addition and post-compound addition scans.

T1 sequence (Q9NY46 whole entry): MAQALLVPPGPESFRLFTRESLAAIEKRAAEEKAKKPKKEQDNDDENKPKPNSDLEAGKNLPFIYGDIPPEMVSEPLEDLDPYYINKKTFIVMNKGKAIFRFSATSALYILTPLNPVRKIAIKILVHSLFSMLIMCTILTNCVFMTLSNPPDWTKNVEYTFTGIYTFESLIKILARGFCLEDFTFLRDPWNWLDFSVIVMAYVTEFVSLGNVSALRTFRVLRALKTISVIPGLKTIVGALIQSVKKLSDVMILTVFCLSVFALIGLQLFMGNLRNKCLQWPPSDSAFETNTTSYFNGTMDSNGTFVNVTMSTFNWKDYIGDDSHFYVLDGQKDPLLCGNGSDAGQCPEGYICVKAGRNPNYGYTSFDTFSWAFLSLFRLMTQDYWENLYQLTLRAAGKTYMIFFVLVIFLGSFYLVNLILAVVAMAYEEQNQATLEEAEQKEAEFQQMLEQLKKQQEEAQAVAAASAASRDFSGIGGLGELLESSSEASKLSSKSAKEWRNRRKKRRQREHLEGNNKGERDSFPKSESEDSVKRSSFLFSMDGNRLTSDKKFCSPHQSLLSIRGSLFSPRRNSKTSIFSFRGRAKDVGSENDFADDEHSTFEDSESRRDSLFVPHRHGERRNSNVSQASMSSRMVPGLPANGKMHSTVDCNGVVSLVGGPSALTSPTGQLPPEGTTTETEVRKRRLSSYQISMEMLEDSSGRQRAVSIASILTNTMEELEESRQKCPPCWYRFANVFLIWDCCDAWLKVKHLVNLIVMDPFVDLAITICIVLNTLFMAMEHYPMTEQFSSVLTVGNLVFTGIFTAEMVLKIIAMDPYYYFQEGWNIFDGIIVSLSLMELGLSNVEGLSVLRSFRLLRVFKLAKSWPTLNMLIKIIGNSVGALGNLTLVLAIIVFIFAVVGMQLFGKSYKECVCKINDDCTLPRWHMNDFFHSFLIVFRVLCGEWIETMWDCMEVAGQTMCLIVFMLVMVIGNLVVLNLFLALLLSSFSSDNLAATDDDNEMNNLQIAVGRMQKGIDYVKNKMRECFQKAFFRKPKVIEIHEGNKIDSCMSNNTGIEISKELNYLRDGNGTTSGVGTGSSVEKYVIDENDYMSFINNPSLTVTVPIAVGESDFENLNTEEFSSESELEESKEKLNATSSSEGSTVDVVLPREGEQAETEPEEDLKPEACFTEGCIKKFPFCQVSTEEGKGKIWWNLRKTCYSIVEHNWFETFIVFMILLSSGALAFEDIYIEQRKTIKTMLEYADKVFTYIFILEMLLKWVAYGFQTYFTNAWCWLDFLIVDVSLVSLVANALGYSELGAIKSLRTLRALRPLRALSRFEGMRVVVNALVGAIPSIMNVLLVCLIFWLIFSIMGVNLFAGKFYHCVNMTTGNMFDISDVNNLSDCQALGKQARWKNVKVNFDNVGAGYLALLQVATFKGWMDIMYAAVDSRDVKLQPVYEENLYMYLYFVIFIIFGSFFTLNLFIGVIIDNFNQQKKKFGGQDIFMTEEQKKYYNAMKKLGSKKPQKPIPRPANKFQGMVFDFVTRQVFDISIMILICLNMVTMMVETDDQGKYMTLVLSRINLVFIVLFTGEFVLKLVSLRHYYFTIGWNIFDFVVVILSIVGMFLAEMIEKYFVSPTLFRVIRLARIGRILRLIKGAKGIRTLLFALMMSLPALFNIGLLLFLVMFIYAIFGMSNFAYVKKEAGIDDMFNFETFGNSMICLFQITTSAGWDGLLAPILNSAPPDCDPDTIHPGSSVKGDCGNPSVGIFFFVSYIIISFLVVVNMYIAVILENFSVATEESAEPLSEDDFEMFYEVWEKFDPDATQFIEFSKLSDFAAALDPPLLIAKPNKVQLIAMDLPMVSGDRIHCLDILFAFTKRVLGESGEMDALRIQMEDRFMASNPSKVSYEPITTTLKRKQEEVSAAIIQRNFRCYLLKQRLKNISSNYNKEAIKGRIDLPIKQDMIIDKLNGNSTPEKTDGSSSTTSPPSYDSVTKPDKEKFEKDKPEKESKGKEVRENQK

| SMILES | inhibition at 3 µM | inhibition at 10 µM | SCN3A INHIB INACT DRC EP IWQ EMAX (Emax of dose-response curve, inactivated state) | IC50 (read-out: SCN3A IWQ IC-50) |
| --- | --- | --- | --- | --- |
| O=C(N[C@H](CO)Cc1ccccc1)c1ccc(S(=O)(=O)Nc2nccs2)cc1 [Example 182, N-[(1S)-1-benzyl-2-hydroxyethyl]-4-[(1,3-thiazol-2-ylamino)sulfonyl]benzamide] | 4.7% | 4.83% | – | – |
| CC(NC(=O)c1ccc(S(=O)(=O)Nc2nccs2)cc1)c1ccccc1Cl (stereo not shown) [Example 143, N-[1-(2-chlorophenyl)ethyl]-4-[(1,3-thiazol-2-ylamino)sulfonyl]benzamide] | 16% | 32% | – | – |
| O=C(N[C@H]1CCC[C@@H]1c1ccccc1)c1ccc(S(=O)(=O)Nc2nccs2)cc1 [Example 131, N-[(1S,2R)-2-phenylcyclopentyl]-4-[(1,3-thiazol-2-ylamino)sulfonyl]benzamide] | 27.2% | 13.1% | – | – |
| O=C(NCC1(c2ccccc2)CCCC1)c1ccc(S(=O)(=O)Nc2nccs2)cc1 [Example 121, N-[(1-phenylcyclopentyl)methyl]-4-[(1,3-thiazol-2-ylamino)sulfonyl]benzamide] | 31.1% | 30.2% | – | – |
| O=C(c1ccc(S(=O)(=O)Nc2nccs2)cc1)N1CCCCC1c1ccccn1 (stereo not shown) [Example 238, 4-[(2-Pyridin-2-ylpiperidin-1-yl)carbonyl]-N-1,3-thiazol-2-yl-benzenesulfonamide] | 3.68% | 9.77% | – | – |
| COc1ccc(CC2COCCN(C(=O)c3ccc(S(=O)(=O)Nc4nccs4)cc3)C2)cc1F (stereo not shown) [Example 199, 4-{[6-(3-Fluoro-4-methoxybenzyl)-1,4-oxazepan-4-yl]carbonyl}-N-1,3-thiazol-2-yl-benzenesulfonamide] | 10.2% | 7.42% | – | – |
| COCCCOC1CCCN(C(=O)c2ccc(S(=O)(=O)Nc3nccs3)cc2)C1 (stereo not shown) [Example 260, 4-{[3-(3-Methoxypropoxy)piperidin-1-yl]carbonyl}-N-1,3-thiazol-2-yl-benzenesulfonamide] | -3.05% | 10.5% | – | – |
| O=C(NCC1(c2ccccc2)CC1)c1ccc(S(=O)(=O)Nc2nccs2)cc1 [Example 153, N-[(1-phenylcyclopropyl)methyl]-4-[(1,3-thiazol-2-ylamino)sulfonyl]benzamide] | 15.9% | 32.9% | – | – |
| O=C(NC(c1c(F)cccc1F)C1CC1)c1ccc(S(=O)(=O)Nc2nccs2)cc1 (stereo not shown) [Example 140, N-[cyclopropyl(2,6-difluorophenyl)methyl]-4-[(1,3-thiazol-2-ylamino)sulfonyl]benzamide] | 2.34% | 18.9% | – | – |
| O=C(c1ccc(S(=O)(=O)Nc2nccs2)cc1)N1CCOCC(Cc2ccc(F)cn2)C1 (stereo not shown) [Example 216, 4-({6-[(5-Fluoropyridin-2-yl)methyl]-1,4-oxazepan-4-yl}carbonyl)-N-1,3-thiazol-2-yl-benzenesulfonamide] | 10.8% | 6.67% | – | – |
| O=C(c1ccc(S(=O)(=O)Nc2nccs2)cc1)N1CCCC1Cc1ccccc1 (stereo not shown) [Example 197, 4-[(2-Benzylpyrrolidin-1-yl)carbonyl]-N-1,3-thiazol-2-yl-benzenesulfonamide] | 17.6% | 17.4% | – | – |
| Cc1ncccc1OCC1CN(C(=O)c2ccc(S(=O)(=O)Nc3nccs3)cc2)CCO1 (stereo not shown) [Example 243, 4-[(2-{[(2-Methylpyridin-3-yl)oxy]methyl}morpholin-4-yl)carbonyl]-N-1,3-thiazol-2-yl-benzenesulfonamide] | 15.3% | 14.7% | – | – |
| Cc1cccc(C2CCCN2C(=O)c2ccc(S(=O)(=O)Nc3nccs3)cc2)c1 (stereo not shown) [Example 228, 4-{[2-(3-Methylphenyl)pyrrolidin-1-yl]carbonyl}-N-1,3-thiazol-2-yl-benzenesulfonamide] | 19.3% | 3.53% | – | – |
| O=C(NCc1cccc(Cl)c1)c1ccc(S(=O)(=O)Nc2nccs2)cc1 [Example 152, N-(3-chlorobenzyl)-4-[(1,3-thiazol-2-ylamino)sulfonyl]benzamide] | 42.2% | 56.3% | – | – |
| O=C(NCc1cc(F)ccc1F)c1ccc(S(=O)(=O)Nc2nccs2)cc1 [Example 87, N-(2,5-difluorobenzyl)-4-[(1,3-thiazol-2-ylamino)sulfonyl]benzamide] | 36.9% | 46.2% | – | – |
| COc1ccc(CC2(NC(=O)c3ccc(S(=O)(=O)Nc4nccs4)cc3)CC2)cc1 [Example 162, N-[1-(4-methoxybenzyl)cyclopropyl]-4-[(1,3-thiazol-2-ylamino)sulfonyl]benzamide] | 28% | 13.7% | – | – |

| SMILES | inhibition at 3 µM | inhibition at 10 µM | SCN3A INHIB INACT DRC EP IWQ EMAX (Emax of dose-response curve, inactivated state) | IC50 (read-out: SCN3A IWQ IC-50) |
| --- | --- | --- | --- | --- |
| Cc1ccnc(CC2CCCN2C(=O)c2ccc(S(=O)(=O)Nc3nccs3)cc2)c1 (stereo not shown) [Example 248, 4-({2-[(4-Methylpyridin-2-yl)methyl]pyrrolidin-1-yl}carbonyl)-N-1,3-thiazol-2-yl-benzenesulfonamide] | 20.1% | 14.7% | – | – |
| O=C(c1ccc(S(=O)(=O)Nc2nccs2)cc1)N1CCCC(COc2ccccc2)C1 (stereo not shown) [Example 267, 4-{[3-(Phenoxymethyl)piperidin-1-yl]carbonyl}-N-1,3-thiazol-2-yl-benzenesulfonamide] | 30.1% | 23.1% | – | – |
| O=C(c1ccc(S(=O)(=O)Nc2nccs2)cc1)N1CCCC(OCc2ccccc2)C1 (stereo not shown) [Example 211, 4-{[3-(benzyloxy)piperidin-1-yl]carbonyl}-N-1,3-thiazol-2-yl-benzenesulfonamide] | 2.5% | 10.1% | – | – |
| Cc1cccc(C2(C)CN(C(=O)c3ccc(S(=O)(=O)Nc4nccs4)cc3)CCO2)c1 (stereo not shown) [Example 189, 4-{[2-Methyl-2-(3-methylphenyl)morpholin-4-yl]carbonyl}-N-1,3-thiazol-2-yl-benzenesulfonamide] | 25.3% | 21% | – | – |
| COc1ccc(CCNC(=O)c2ccc(S(=O)(=O)Nc3nccs3)cc2)cc1 [Example 169, N-[2-(4-methoxyphenyl)ethyl]-4-[(1,3-thiazol-2-ylamino)sulfonyl]benzamide] | 35.3% | 27.3% | – | – |
| O=C(NC1(Cc2cccc(Cl)c2)CC1)c1ccc(S(=O)(=O)Nc2nccs2)cc1 [Example 137, N-[1-(3-chlorobenzyl)cyclopropyl]-4-[(1,3-thiazol-2-ylamino)sulfonyl]benzamide] | 21.8% | 36.2% | – | – |
| COc1cccc(C2CCCCN2C(=O)c2ccc(S(=O)(=O)Nc3nccs3)cc2)c1 (stereo not shown) [Example 201, 4-{[2-(3-Methoxyphenyl)piperidin-1-yl]carbonyl}-N-1,3-thiazol-2-yl-benzenesulfonamide] | 13.7% | -0.98% | – | – |
| O=C(c1ccc(S(=O)(=O)Nc2nccs2)cc1)N(Cc1ccccc1)[C@@H](CO)c1ccccc1 [Example 208, N-benzyl-N-[(1R)-2-hydroxy-1-phenylethyl]-4-[(1,3-thiazol-2-yl-amino)sulfonyl]benzamide] | 3.57% | -14.2% | – | – |
| Cc1cccc(CN2CCN(C(=O)c3ccc(S(=O)(=O)Nc4nccs4)cc3)CC2=O)c1 [Example 276, 4-{[4-(3-Methylbenzyl)-3-oxopiperazin-1-yl]carbonyl}-N-1,3-thiazol-2-yl-benzenesulfonamide] | 18.1% | 20.6% | – | – |
| CC(c1ccccc1)N(CCO)C(=O)c1ccc(S(=O)(=O)Nc2nccs2)cc1 (stereo not shown) [Example 229, N-(2-hydroxyethyl)-N-(1-phenylethyl)-4-[(1,3-thiazol-2-yl-amino)sulfonyl]benzamide] | 12.5% | 3.91% | – | – |
| CC(Cc1ccc(F)cc1)NC(=O)c1ccc(S(=O)(=O)Nc2nccs2)cc1 (stereo not shown) [Example 149, N-[2-(4-fluorophenyl)-1-methylethyl]-4-[(1,3-thiazol-2-ylamino)sulfonyl]benzamide] | 12.5% | 14.6% | – | – |
| O=C(c1ccc(S(=O)(=O)Nc2nccs2)cc1)N1CCCC1c1ccccc1Cl (stereo not shown) [Example 215, 4-{[2-(2-Chlorophenyl)pyrrolidin-1-yl]carbonyl}-N-1,3-thiazol-2-yl-benzenesulfonamide] | 30.5% | 51.9% | 64.7 | 8.41 µM |
| C[C@@H](c1ccccc1)N(C)C(=O)c1ccc(S(=O)(=O)Nc2nccs2)cc1 [Example 256, N-methyl-N-[(1S)-1-phenylethyl]-4-[(1,3-thiazol-2-yl-amino)sulfonyl]benzamide] | 1.49% | 6.44% | – | – |
| COc1ccccc1CC1(NC(=O)c2ccc(S(=O)(=O)Nc3nccs3)cc2)CC1 [Example 157, N-[1-(2-methoxybenzyl)cyclopropyl]-4-[(1,3-thiazol-2-ylamino)sulfonyl]benzamide] | 11.3% | 15.3% | – | – |
| O=C(NCc1cc(C(F)(F)F)ccc1F)c1ccc(S(=O)(=O)Nc2nccs2)cc1 [Example 76, N-[2-fluoro-5-(trifluoromethyl)benzyl]-4-[(1,3-thiazol-2-ylamino)sulfonyl]benzamide] | 35.8% | 52.1% | – | – |
